Experiment: Human HepG2 cell viability assay in 384 well format
Type: toxicity, cell-based
Set-up: dose 125 nL, time 70.5 hour; concentration not given beside the values
Settings: HepG2 cells, read-out: Inhibition

Structure (SMILES)	cytotoxicity at 70.5 h [%]
O=C(CSc1ccccn1)NCc1ccc2c(c1)CCC(=O)N2	40.7
CN(C)C(=O)COC1COC2(CCN(c3cccc(F)c3)CC2)C1 (centres undefined)	2.89
CCc1nc(CN(C(C)=O)C2CCN(CC3CCOCC3)C2)no1 (centres undefined)	-9.95
COC(=O)c1cccc(CNC(=O)CCC(F)(F)F)c1	-3.83
O=C1N(CC2CCCC2)CCC12CCN(c1ncc(F)cn1)CC2	-7.22
Cc1ccccc1CC1(C(=O)O)CCCN(c2ncnc3[nH]ccc23)C1 (centres undefined)	-5.97
COc1nccnc1N1CCN(Cc2ccc(F)cc2)C(=O)C1	24.6
CC1(C)CNC(=O)c2nc(-c3nnn[nH]3)[nH]c2C1	-3.01
Cc1cnn(CCC(=O)N2CCC3(CCC(=O)N(CC4CC4)C3)CC2)c1	-6.95
O=C(NCc1cn2c(n1)CN(Cc1cccnc1)CC2)C1CCC1	7.24
O=C(c1cnccn1)N1CC[C@H]2[C@H]1CCN2S(=O)(=O)C1CC1	-4.25
O=C1NC(c2ccccc2)=N[C@@]12CC[C@@H]1CN(Cc3ccco3)C[C@@H]12	-5.19
CC(C)(C)c1nnc(CN(Cc2cccs2)CC2CCCO2)o1 (centres undefined)	-1.38
Cc1ccc(-c2cc(CNCCn3cc(C)cn3)on2)cc1	-1.34
CN(C)C[C@H]1OC[C@@H]2CCN(S(=O)(=O)c3ccccc3)C[C@@H]21	22.9
CCc1c(C(=O)NCC(=O)OCC2CC2)cnn1-c1ccc(C)cc1	27.6
CN(C)CC1(O)CCN(Cc2cnc3c(-c4ccccc4)cnn3c2)C1 (centres undefined)	-4.22
CCN(Cc1c(F)cccc1Cl)c1cc(C2CCNCC2)nc(C)n1	2.62
COC(C)c1cccc(NC(=O)N(CCC#N)Cc2ccccn2)c1 (centres undefined)	-6.49
c1cnc(-c2cnc(N3CCCCC3)nc2C2CCCO2)cn1 (centres undefined)	-5.56
Cc1occc1C(=O)N1CCC2(CCCN(Cc3cccs3)C2)C1 (centres undefined)	0.121
O=C(CCn1cncn1)NCC1CCCC1	-6.57
O=C1CO[C@@H]2CN(Cc3cccs3)C[C@H]2N1CC1CC1	-9.66

Structure (SMILES)	cytotoxicity at 70.5 h [%]
CC(C)C(=O)N(C)Cc1nc(N2CCCC2)ncc1-c1ccncc1	-6.45
O=C1CC(c2ccc(C(=O)O)cc2)c2ncn(-c3ccccc3F)c2N1 (centres undefined)	-11.1
O=C(NCCCn1cccn1)C1(c2ccc(Br)cc2)CC1	-2.34
COc1ccc(C(C)NC(=O)Nc2nnc(C)s2)c(OC)c1 (centres undefined)	-4.87
Cc1cccc(COc2ccccc2C(=O)N2CCC(C(N)=O)CC2)c1	4.8
CS(=O)(=O)NC1CCCN(C(=O)Nc2cccnc2N2CCCC2)C1 (centres undefined)	0.921
Cc1nc(NC(=O)COCC2CC2)ccc1Br	-8.55
COc1ccc(NC(=O)Cc2c(C)nn(C)c2C)cc1F	7.37
CCCc1nn(C2CCN(C(C)C)C2=O)c(=O)o1 (centres undefined)	-1.04
O=C(Cn1c(=O)n(Cc2ccco2)c2ncccc21)NC1CC1	-4.4
O=C(NCCn1cnc(C2CCCC2)cc1=O)NCc1cccs1	-7.11
Cc1csc(CN(C)C(=O)c2cccc(CCC(C)(C)O)c2)n1	-6.05
COc1ccc(CNC(=O)CCN2CCOC(C(F)(F)F)C2)cc1 (centres undefined)	-7.56
Cc1cnc(CCNc2cccc(CC3CCCNC3)n2)s1 (centres undefined)	0.312
O=C1CC(C(=O)Nc2nnc(-c3cccs3)[nH]2)c2ccccc2N1 (centres undefined)	-2.83
CC(C)(C)c1cn(C2CCN(C(=O)c3cnccn3)CC2)nn1	-13.1
O=C(NCCN1C(=O)CCC1=O)c1nc2ccccc2c(=O)[nH]1	-12.2
O=C(NCc1ccccc1-n1cccn1)N1CCC(N2CCCC2)C1 (centres undefined)	-6.47
CC(Cn1cccn1)n1cnc2cccc(F)c2c1=O (centres undefined)	-7.35
CCC(C)(N)c1nc(C(C)C)cc(=O)[nH]1 (centres undefined)	-4.71
CNc1nc(C)c(C(=O)NCC(C)(C)N2CCCCC2)s1	-0.6
Cc1c(C(=O)N(CCN(C)C)Cc2ccccn2)oc2ccccc12	-5.85
COCCN1CCC(CNC(=O)Nc2ccc(F)c(Cl)c2)C1 (centres undefined)	24.8

Structure (SMILES)	cytotoxicity at 70.5 h [%]
COc1ccccc1-c1c[nH]c(C2CCCN2)n1 (centres undefined)	-7.74
CN1CCC2(CC1)OC(C(=O)NCc1cccnc1)Cn1ccnc12 (centres undefined)	-11.2
O=C1CC2(CCSC2)C(=O)N1CCCc1ccccc1 (centres undefined)	-5.63
O=C(Cc1c[nH]c2ncccc12)NCC(O)c1ccccc1F (centres undefined)	15.1
COc1ccccc1CC1CCCN(C(=O)c2nccnc2N)C1 (centres undefined)	-6.5
CSCC[C@H]1CN2CCC[C@H]2CN1Cc1cn(C)nc1C	-3.69
CCN(C(=O)CN(C)C(c1cccc(F)c1)c1ccccn1)C1CC1 (centres undefined)	-5.47
CN(C)c1ccccc1C(=O)N1CCOC2(CNCCOC2)C1 (centres undefined)	-2.92
COCCOC1CCN(C(C(=O)O)c2ccc(OC)c(F)c2)CC1 (centres undefined)	-6
CC(=O)N1CCN(C(=O)c2cnn(-c3ccccc3Cl)c2)CC1	3.15
COc1ccc(CN2CCCCCC2c2cccs2)c(OC)c1 (centres undefined)	-8.21
CCOCC1CN(CC2CCC2)Cc2nnn(CC3CC3)c21 (centres undefined)	-0.482
CCN(CC1CCOC1)C(=O)Cn1nnn(-c2cccs2)c1=O (centres undefined)	-15.9
Cc1nn(C)c(N2CCOCC2)c1CNCC1CCS(=O)(=O)C1 (centres undefined)	-10.2
CCN(CC)C[C@H]1CN2CC[C@H]1C[C@@H]2CNC(=O)Nc1ccsc1	-8.02
Cc1ccc(C(O)CNCCn2cccn2)cc1C (centres undefined)	-3.19
Cc1cc(C)cc(C(C(=O)O)N(C)CCCN2CCOCC2)c1 (centres undefined)	8.9
CCc1nc(CN2CCCC(NCc3nc4ccccc4o3)C2)no1 (centres undefined)	-1.56
CN1CCN(Cc2cccc(NCc3cc[nH]n3)c2)CC1	-5.29
O=C(O)C1CCCN(c2nc3c(-c4ccccc4)csc3c(=O)[nH]2)C1 (centres undefined)	0.25
CC(c1nccs1)N(C)Cc1ccc(CCC(C)(C)O)cc1 (centres undefined)	0.285
O=C(C1CCC2(CCN(Cc3cccnc3)CC2)CO1)N1CCCC1 (centres undefined)	-7.42
COc1cc(CNC(=O)CNc2cc(Cl)ccc2OC)ccn1	3.6

Structure (SMILES)	cytotoxicity at 70.5 h [%]
O=C(CCc1ccccc1)N1CCC(N2CCNC2=O)CC1	-8.47
CN(C)S(=O)(=O)N(C)C(c1cccnc1)c1ccc(F)c(F)c1 (centres undefined)	14.4
O=C(Cn1cccn1)N1CCc2[nH]nc(-c3ccc4c(c3)OCO4)c2C1	-7.87
C[C@H](NC(=O)Cc1csc(-c2cccc(Cl)c2)n1)C(=O)O	19.3
CCN1CC2(CCC1=O)CCN(C(=O)c1ccc(Cl)cc1O)CC2	-2.93
CN(Cc1cnccn1)S(=O)(=O)c1ccc(C(F)(F)F)nc1	36.5
COc1ccc(N2CCCC3(C2)CN(c2cccnc2)CCO3)cc1 (centres undefined)	-9.47
Cn1ccnc1SC1CCc2ccccc2NC1=O (centres undefined)	-23.5
O=S(=O)(NCCC(O)c1ccoc1)c1ccc(Cl)s1 (centres undefined)	-0.192
CC(C)c1noc(CN2CCC(c3ccnn3CCO)CC2)n1	-3.73
Cc1nc(N2CCCOC(Cn3cccn3)C2)c2sccc2n1 (centres undefined)	-2.92
Cc1cc(C2CCCN(C(=O)c3ccc(Cl)o3)C2)n[nH]1 (centres undefined)	-8.12
CC(C)c1nc(CC(=O)Nc2cnccc2O)cs1	-3.73
COCCNC(=O)N1CCOCC1c1c(C)nn(C)c1C (centres undefined)	-1.43
COc1ccc(C(CC(=O)O)NC(=O)c2cc(C)on2)cc1 (centres undefined)	-1.84
CCS(=O)(=O)c1ccccc1N1CCC(NC(=O)NC2CCCC2)CC1	-14.2
COc1ccc2c(c1)C(=O)NC1(CC2)CCN(Cc2cccnc2)C1 (centres undefined)	-2.38
CN(C)S(=O)(=O)c1ccc(CSCC(=O)NC(C)(C)C)o1	-8.48
CN(C)C(CNC(=O)NCCS(C)(=O)=O)c1ccco1 (centres undefined)	-4.23
CC(C)c1nnc(CN2CC(n3cccn3)Cc3ccccc32)o1 (centres undefined)	-4.11
COCCSCC(=O)NC1(c2cccc(Br)c2)CC1	-2.67
Cc1cc(NCCS(C)(=O)=O)nc2cc3c(cc12)CCC3	-5.3
Cc1ccccc1NC(=O)Nc1cc(N2CCCC2)ncn1	10.8

Structure (SMILES)	cytotoxicity at 70.5 h [%]
Cc1nc[nH]c1C(=O)NCc1cccnc1N(C)C1CCCCC1	4.83
CCn1nc(C)c2nc(C(C)C)nc(NCCCO)c21	-16.2
Cc1cc(C(=O)Nc2ccc3c(c2)N(C)CCN(C)C3)on1	-5.18
O=C(c1cscn1)N1CCCC12CCCN(S(=O)(=O)c1ccccc1)C2 (centres undefined)	-2.41
O=C(Cn1cc(I)cn1)N1CCc2ccccc2C1	-3.15
Cc1ccc(C(=O)NC2CCOc3ccccc32)cc1S(C)(=O)=O (centres undefined)	27.5
CC(C)c1nc2n(n1)CC(NCc1ccncc1)CC2 (centres undefined)	-16.7
COCC(=O)N(Cc1cccnc1)CC1CCCN(C2CCCCC2)C1 (centres undefined)	-5.51
C/C(=C\c1ccco1)CN(C)C(C)c1ccccn1 (centres undefined)	16.1
COCC(=O)N1CCC2(CC1)COCCN2Cc1ccc(F)cc1	-11.6
Cc1cc(-c2ccc(=O)n(C3CCN(S(C)(=O)=O)CC3)n2)c(C)o1	17.2
CCS(=O)(=O)N1CCCC2(COCCN(c3ccccn3)C2)C1 (centres undefined)	-18.6
Cc1ccc(CN2CCN(Cc3cc(C)n[nH]3)CC2CCO)cc1 (centres undefined)	12.1
CCc1nc2c(c(C)c(C)n2Cc2cccnc2)c(N)c1C	0.896
CN(C)C(=O)c1noc2c1CN(C(=O)CCC1CCCCN1C)CC2 (centres undefined)	-4.32
CCN(CC)CCCNCc1cc2cccc(C)c2[nH]c1=O	-4.69
OC1(CN2CCOC(Cn3cccn3)C2)CCCCC1 (centres undefined)	0.595
Cn1cc(CN2CCN(CC3(c4ccccc4)CC3)CC2)cn1	-11.2
CN1C[C@H]2CC[C@@H]1CN(C(=O)COCc1nc3cc(F)ccc3[nH]1)C2	27.3
CC1=Nc2c(c(=O)[nH]n2C(C)C)C(c2ccc3c(c2)n(C)c(=O)n3C)S1 (centres undefined)	-9
CN(C)CCN(C)C1CCCN(C(=O)c2ccc(Cn3ccnc3)o2)C1 (centres undefined)	-9.94
CS(=O)(=O)N1CCC(CNc2c(Cl)cccc2C#N)CC1	-1.91

Reference: ChEMBL document CHEMBL3507680, “University of Dundee, Gates Library screen for HepG2 cell viability”
